This is an account of results in article PMC9250534, “Synthesis and direct assay of large macrocycle diversities by combinatorial late-stage modification at picomole scale” (Nature Communications, 2022).

This experiment concerns the target MDM2 (Homo sapiens, UniProt Q00987). The experiment is described as follows: MDM2 binding screen: displacement of fluorescent p53 peptide probe FP53 (fluorescence polarization). Conditions: for fraction fluorescent probe displaced, Screen: initial screen; for fraction fluorescent probe displaced, Screen / fraction fluorescent probe displaced, Replicate: crude macrocycle reactions. How it is done:
We screened Library 2 in 384-microwell plates by dispensing the target protein MDM2 and reporter peptide into the wells containing the macrocycle reactions.
The products were screened for displacement of a p53-based fluorescent peptide from human MDM2. Final macrocycle concentrations were 10 µM. For each macrocycle, the MDM2 binding was measured once.
One fluorescence anisotropy reading was taken with a Tecan Infinite F200 Pro fluorescence plate reader (excitation at 485 nm, emission at 535 nm) at 25 °C. Data was collected and exported using the Tecan Infinite M200 Pro instrument software. The data was analyzed by Excel (version 2016).
For orientation: Fluorescence polarisation rises when a labelled molecule tumbles more slowly, as on binding a larger partner.

[1] abbreviates: crude reaction of macrocycle scaffold with Acid 25, (initial screen).
[2] abbreviates: crude reaction of macrocycle scaffold with Acid 25, replicate.
[3] abbreviates: crude reaction of macrocycle scaffold with Acid 91, (initial screen).
The mark [4] stands for this setting: crude reaction of macrocycle scaffold with Acid 91, replicate.

MDM2, sequence (Q00987 whole entry): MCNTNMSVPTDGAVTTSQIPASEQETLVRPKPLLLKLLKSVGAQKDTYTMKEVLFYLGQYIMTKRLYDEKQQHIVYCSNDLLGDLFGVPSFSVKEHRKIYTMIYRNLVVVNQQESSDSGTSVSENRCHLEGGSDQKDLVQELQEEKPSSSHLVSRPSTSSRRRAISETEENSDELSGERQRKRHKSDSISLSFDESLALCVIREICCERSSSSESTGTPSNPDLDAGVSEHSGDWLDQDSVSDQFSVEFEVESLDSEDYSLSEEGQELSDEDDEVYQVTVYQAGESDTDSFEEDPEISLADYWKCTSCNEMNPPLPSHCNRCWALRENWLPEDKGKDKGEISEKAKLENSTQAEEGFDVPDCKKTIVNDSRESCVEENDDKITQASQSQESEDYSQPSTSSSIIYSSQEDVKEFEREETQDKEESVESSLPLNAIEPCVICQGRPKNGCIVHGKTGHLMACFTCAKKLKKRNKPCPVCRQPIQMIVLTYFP

For `O=C(C=Cc1ccccc1)NC1CC2C(=O)NCCSSCCC(=O)NCCC(=O)NC(Cc3ccccc3)C(=O)N2C1` (stereo not shown) [X B2 F D5 Acid 91], the “fraction fluorescent probe displaced, Screen” value (Acid 91) is 0.00268. Besides, under “Acid 91, replicate”, the “fraction fluorescent probe displaced, Replicate” value is reported as -0.08.

Turning to `O=C1CCSSCCNC(=O)C2(CCN(C(=O)c3ccc(Cl)s3)CC2)NC(=O)[C@H](Cc2ccccc2)NC(=O)CCN1` [X B2 F D6 Acid 14], the “fraction fluorescent probe displaced, Screen” value (Acid 14) turned out to be 0.08. For the same compound, the “fraction fluorescent probe displaced, Replicate” value (Acid 14, replicate) turned out to be 0.12.

Regarding `O=C1CCSSCCNC(=O)C2(CCN(C(=O)c3ccc(Cl)cc3)CC2)NC(=O)[C@H](Cc2ccccc2)NC(=O)CCN1` [X B2 F D6 Acid 25], the “fraction fluorescent probe displaced, Screen” value (Acid 25) was -0.17. Further, for the setting “Acid 25, replicate”, the “fraction fluorescent probe displaced, Replicate” value came out at 0.0465.

As for `O=C1CCSSCCNC(=O)C2(CCN(C(=O)/C=C/c3ccccc3)CC2)NC(=O)[C@H](Cc2ccccc2)NC(=O)CCN1` [X B2 F D6 Acid 91], under “Acid 91”, the “fraction fluorescent probe displaced, Screen” value is on record as 0.0563. Also, under “Acid 91, replicate”, the “fraction fluorescent probe displaced, Replicate” value turned out to be 0.12.

With `O=C1CCSSCCNC(=O)C2CN(C(=O)C=Cc3ccccc3)CCN2C(=O)C(Cc2ccccc2)NC(=O)CCN1` (stereo not shown) [X B2 F D7 Acid 91], the “fraction fluorescent probe displaced, Screen” value (Acid 91) came to 0.03. Besides, where the note is “Acid 91, replicate”, the “fraction fluorescent probe displaced, Replicate” value was -0.00827.

`O=C1CCSSCCNC(=O)[C@H](CNC(=O)c2ccc(Cl)cc2)NC(=O)[C@H](Cc2c[nH]c3ccccc23)NC(=O)CCN1` [X B2 W D3 Acid 25]: the “fraction fluorescent probe displaced, Screen” value (Acid 25) was 0.19. Also, the “fraction fluorescent probe displaced, Replicate” value (Acid 25, replicate) was found to be 0.22.

As for `O=C(/C=C/c1ccccc1)NC[C@@H]1NC(=O)[C@H](Cc2c[nH]c3ccccc23)NC(=O)CCNC(=O)CCSSCCNC1=O` [X B2 W D3 Acid 91], where the note is “Acid 91”, the “fraction fluorescent probe displaced, Screen” value was found to be 0.14. Further, the “fraction fluorescent probe displaced, Replicate” value (Acid 91, replicate) was found to be 0.07.

As to `O=C1CCSSCCNC(=O)[C@@H]2C[C@H](NC(=O)c3ccc(Cl)s3)CN2C(=O)[C@H](Cc2c[nH]c3ccccc23)NC(=O)CCN1` [X B2 W D5 Acid 14], where the note is “Acid 14”, the “fraction fluorescent probe displaced, Screen” value stood at 0.11. The “fraction fluorescent probe displaced, Replicate” value (Acid 14, replicate) was 0.15.

For the compound `O=C1CCSSCCNC(=O)C2CC(NC(=O)c3ccc(Cl)cc3)CN2C(=O)C(Cc2c[nH]c3ccccc23)NC(=O)CCN1` (stereo not shown) [X B2 W D5 Acid 25], the “fraction fluorescent probe displaced, Screen” value (Acid 25) was determined as 0.19. Further, the “fraction fluorescent probe displaced, Replicate” value (Acid 25, replicate) was found to be 0.22.

As to `O=C1CCSSCCNC(=O)C2(CCN(C(=O)c3ccc(Cl)s3)CC2)NC(=O)[C@H](Cc2c[nH]c3ccccc23)NC(=O)CCN1` [X B2 W D6 Acid 14], where the note is “Acid 14”, the “fraction fluorescent probe displaced, Screen” value was 0.14. For the same compound, the “fraction fluorescent probe displaced, Replicate” value (Acid 14, replicate) was 0.0465.

Consider `O=C1CCSSCCNC(=O)C2(CCN(C(=O)c3ccc(Cl)cc3)CC2)NC(=O)[C@H](Cc2c[nH]c3ccccc23)NC(=O)CCN1` [X B2 W D6 Acid 25], for which, where the note is “Acid 25”, the “fraction fluorescent probe displaced, Screen” value turned out to be 0.0244. In addition, for the setting “Acid 25, replicate”, the “fraction fluorescent probe displaced, Replicate” value turned out to be 0.0211.

Take `O=C1CCSSCCNC(=O)C2(CCN(C(=O)C=Cc3ccccc3)CC2)NC(=O)C(Cc2c[nH]c3ccccc23)NC(=O)CCN1` (stereo not shown) [X B2 W D6 Acid 91]: the “fraction fluorescent probe displaced, Screen” value (Acid 91) amounted to 0.0563. In addition, the “fraction fluorescent probe displaced, Replicate” value (Acid 91, replicate) turned out to be 0.07.

On to `O=C1CCSSCCNC(=O)C2CN(C(=O)c3ccc(Cl)cc3)CCN2C(=O)C(Cc2c[nH]c3ccccc23)NC(=O)CCN1` (stereo not shown) [X B2 W D7 Acid 25], for which the “fraction fluorescent probe displaced, Screen” value (Acid 25) came to 0.0569. Moreover, the “fraction fluorescent probe displaced, Replicate” value (Acid 25, replicate) is reported as 0.10.

For the compound `O=C(NCC1NC(=O)C2CCCN(C2)C(=O)CCSSCCNC(=O)C(Cc2ccccc2)NC1=O)c1ccc(Cl)s1` (stereo not shown) [X B4 D3 F Acid 14], for the setting “Acid 14”, the “fraction fluorescent probe displaced, Screen” value came to 0.14. Further, under “Acid 14, replicate”, the “fraction fluorescent probe displaced, Replicate” value is 0.15.

With `O=C(NC[C@@H]1NC(=O)[C@H]2CCCN(C2)C(=O)CCSSCCNC(=O)[C@H](Cc2ccccc2)NC1=O)c1ccc(Cl)cc1` [X B4 D3 F Acid 25], the “fraction fluorescent probe displaced, Screen” value (Acid 25) worked out at 0.09. The “fraction fluorescent probe displaced, Replicate” value (Acid 25, replicate) is 0.12.

For `O=C(NC[C@@H]1NC(=O)[C@H]2CCCN(C2)C(=O)CCSSCCNC(=O)[C@H](Cc2c[nH]c3ccccc23)NC1=O)c1ccc(Cl)s1` [X B4 D3 W Acid 14], the “fraction fluorescent probe displaced, Screen” value (Acid 14) came out at 0.63. The “fraction fluorescent probe displaced, Replicate” value (Acid 14, replicate) is on record as 0.58.

In the case of `O=C(C=Cc1ccccc1)NCC1NC(=O)C2CCCN(C2)C(=O)CCSSCCNC(=O)C(Cc2c[nH]c3ccccc23)NC1=O` (stereo not shown) [X B4 D3 W Acid 91], the “fraction fluorescent probe displaced, Screen” value (Acid 91) is 0.81. Moreover, the “fraction fluorescent probe displaced, Replicate” value (Acid 91, replicate) worked out at 0.49.

As for `O=C(N[C@H]1C[C@H]2C(=O)N[C@@H](Cc3c[nH]c4ccccc34)C(=O)NCCSSCCC(=O)N3CCC[C@@H](C3)C(=O)N2C1)c1ccc(Cl)s1` [X B4 D5 W Acid 14], the “fraction fluorescent probe displaced, Screen” value (Acid 14) was 0.11. The “fraction fluorescent probe displaced, Replicate” value (Acid 14, replicate) was 0.0211.

Take `O=C1NC2(CCN(C(=O)c3ccc(Cl)s3)CC2)C(=O)N[C@@H](Cc2ccccc2)C(=O)NCCSSCCC(=O)N2CCC[C@H]1C2` [X B4 D6 F + Acid 14]: the “fraction fluorescent probe displaced” value by setting is: (crude reaction of macrocycle scaffold with Acid 14, (initial screen)) 0.25; (crude reaction of macrocycle scaffold with Acid 14, replicate) 0.12.

Regarding `O=C1NC2(CCN(C(=O)c3ccc(Cl)cc3)CC2)C(=O)N[C@@H](Cc2ccccc2)C(=O)NCCSSCCC(=O)N2CCC[C@H]1C2` [X B4 D6 F + Acid 25], the “fraction fluorescent probe displaced” value by setting is: under setting [1], 0.0462; under setting [2], 0.10.

For the compound `O=C1NC2(CCN(C(=O)/C=C/c3ccccc3)CC2)C(=O)N[C@@H](Cc2ccccc2)C(=O)NCCSSCCC(=O)N2CCC[C@H]1C2` [X B4 D6 F + Acid 91], the “fraction fluorescent probe displaced” value under setting [3] turned out to be 0.12 and the “fraction fluorescent probe displaced” value under setting [4] is listed as 0.12.

As to `O=C1NC2(CCN(C(=O)c3ccc(Cl)cc3)CC2)C(=O)N[C@@H](Cc2c[nH]c3ccccc23)C(=O)NCCSSCCC(=O)N2CCC[C@H]1C2` [X B4 D6 W Acid 25], for the setting “Acid 25”, the “fraction fluorescent probe displaced, Screen” value stood at 0.38. The “fraction fluorescent probe displaced, Replicate” value (Acid 25, replicate) amounted to 0.25.

For `O=C1NC2(CCN(C(=O)/C=C/c3ccccc3)CC2)C(=O)N[C@@H](Cc2c[nH]c3ccccc23)C(=O)NCCSSCCC(=O)N2CCC[C@H]1C2` [X B4 D6 W Acid 91], the “fraction fluorescent probe displaced, Screen” value (Acid 91) is 0.16. For the same compound, the “fraction fluorescent probe displaced, Replicate” value (Acid 91, replicate) stood at 0.09.

In the case of `O=C1NCCSSCCC(=O)N2CCCC(C2)C(=O)N2CCN(C(=O)c3ccc(Cl)cc3)CC2C(=O)NC1Cc1ccccc1` (stereo not shown) [X B4 D7 F + Acid 25], the “fraction fluorescent probe displaced” value reads like this: under setting [1], 0.15; under setting [2], 0.10.

Turning to `O=C1NCCSSCCC(=O)N2CCCC(C2)C(=O)N2CCN(C(=O)c3ccc(Cl)cc3)CC2C(=O)NC1Cc1c[nH]c2ccccc12` (stereo not shown) [X B4 D7 W Acid 25], the “fraction fluorescent probe displaced, Screen” value (Acid 25) amounted to 0.32. For the same compound, the “fraction fluorescent probe displaced, Replicate” value (Acid 25, replicate) stood at 0.17.

With `O=C(NC[C@@H]1NC(=O)[C@H](Cc2ccccc2)NC(=O)[C@H]2CCCN(C2)C(=O)CCSSCCNC1=O)c1ccc(Cl)s1` [X B4 F D3 Acid 14], for the setting “Acid 14”, the “fraction fluorescent probe displaced, Screen” value came out at 0.08. The “fraction fluorescent probe displaced, Replicate” value (Acid 14, replicate) was found to be 0.10.

On to `O=C(NC[C@@H]1NC(=O)[C@H](Cc2ccccc2)NC(=O)[C@H]2CCCN(C2)C(=O)CCSSCCNC1=O)c1ccc(Cl)cc1` [X B4 F D3 Acid 25], for which the “fraction fluorescent probe displaced, Screen” value (Acid 25) came out at 0.09. Also, for the setting “Acid 25, replicate”, the “fraction fluorescent probe displaced, Replicate” value stood at 0.12.

As to `O=C(C=Cc1ccccc1)NCC1NC(=O)C(Cc2ccccc2)NC(=O)C2CCCN(C2)C(=O)CCSSCCNC1=O` (stereo not shown) [X B4 F D3 Acid 91], the “fraction fluorescent probe displaced, Screen” value (Acid 91) worked out at 0.03. Also, for the setting “Acid 91, replicate”, the “fraction fluorescent probe displaced, Replicate” value is -0.00827.

Turning to `O=C(NC1CC2C(=O)NCCSSCCC(=O)N3CCCC(C3)C(=O)NC(Cc3ccccc3)C(=O)N2C1)c1ccc(Cl)cc1` (stereo not shown) [X B4 F D5 Acid 25], where the note is “Acid 25”, the “fraction fluorescent probe displaced, Screen” value amounted to 0.0569. Where the note is “Acid 25, replicate”, the “fraction fluorescent probe displaced, Replicate” value is on record as 0.12.

With `O=C(C=Cc1ccccc1)NC1CC2C(=O)NCCSSCCC(=O)N3CCCC(C3)C(=O)NC(Cc3ccccc3)C(=O)N2C1` (stereo not shown) [X B4 F D5 Acid 91], for the setting “Acid 91”, the “fraction fluorescent probe displaced, Screen” value is recorded as -0.05. The “fraction fluorescent probe displaced, Replicate” value (Acid 91, replicate) is on record as -0.0333.

Regarding `O=C1NC(Cc2ccccc2)C(=O)NC2(CCN(C(=O)c3ccc(Cl)cc3)CC2)C(=O)NCCSSCCC(=O)N2CCCC1C2` (stereo not shown) [X B4 F D6 + Acid 25], the “fraction fluorescent probe displaced” value is, setting by setting: under setting [1], 0.09; under setting [2], 0.17.

With `O=C1N[C@@H](Cc2ccccc2)C(=O)NC2(CCN(C(=O)/C=C/c3ccccc3)CC2)C(=O)NCCSSCCC(=O)N2CCC[C@H]1C2` [X B4 F D6 + Acid 91], the “fraction fluorescent probe displaced” value amounted to 0.08 under setting [3] and 0.0168 under setting [4].

In the case of `O=C1NC(Cc2ccccc2)C(=O)N2CCN(C(=O)c3ccc(Cl)cc3)CC2C(=O)NCCSSCCC(=O)N2CCCC1C2` (stereo not shown) [X B4 F D7 Acid 25], the “fraction fluorescent probe displaced, Screen” value (Acid 25) worked out at 0.09. The “fraction fluorescent probe displaced, Replicate” value (Acid 25, replicate) was found to be 0.10.

In the case of `O=C1NC(Cc2ccccc2)C(=O)N2CCN(C(=O)C=Cc3ccccc3)CC2C(=O)NCCSSCCC(=O)N2CCCC1C2` (stereo not shown) [X B4 F D7 Acid 91], the “fraction fluorescent probe displaced, Screen” value (Acid 91) worked out at 0.00268. For the same compound, for the setting “Acid 91, replicate”, the “fraction fluorescent probe displaced, Replicate” value is listed as -0.00827.

Take `O=C(NC[C@@H]1NC(=O)[C@H](Cc2c[nH]c3ccccc23)NC(=O)[C@H]2CCCN(C2)C(=O)CCSSCCNC1=O)c1ccc(Cl)s1` [X B4 W D3 Acid 14]: the “fraction fluorescent probe displaced, Screen” value (Acid 14) is on record as 0.11. Moreover, the “fraction fluorescent probe displaced, Replicate” value (Acid 14, replicate) was 0.10.
